The target of data set [1] is T1, CNT1 (Rattus norvegicus, UniProt Q62674).
T1 sequence (Q62674 1-648): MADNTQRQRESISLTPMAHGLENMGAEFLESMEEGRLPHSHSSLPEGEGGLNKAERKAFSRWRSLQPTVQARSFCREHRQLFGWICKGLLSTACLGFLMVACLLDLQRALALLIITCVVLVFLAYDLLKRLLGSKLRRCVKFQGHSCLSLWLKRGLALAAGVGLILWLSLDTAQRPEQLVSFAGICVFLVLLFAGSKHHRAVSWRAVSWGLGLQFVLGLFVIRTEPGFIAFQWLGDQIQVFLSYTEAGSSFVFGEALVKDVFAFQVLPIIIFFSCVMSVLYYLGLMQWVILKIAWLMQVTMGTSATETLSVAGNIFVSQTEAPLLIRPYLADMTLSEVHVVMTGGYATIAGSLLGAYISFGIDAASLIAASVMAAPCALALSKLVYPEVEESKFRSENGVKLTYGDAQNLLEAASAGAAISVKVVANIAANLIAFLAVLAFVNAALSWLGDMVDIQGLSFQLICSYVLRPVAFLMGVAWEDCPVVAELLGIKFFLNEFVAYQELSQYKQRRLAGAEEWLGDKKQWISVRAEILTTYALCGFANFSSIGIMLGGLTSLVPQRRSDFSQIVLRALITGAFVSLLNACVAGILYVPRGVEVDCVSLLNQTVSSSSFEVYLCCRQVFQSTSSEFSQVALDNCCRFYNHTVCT
The data set is described as follows: inhibition of CNT1-mediated nucleoside (uridine, AZT, ddC) transport in Xenopus oocytes. The format is cell-based. The settings on record: 1 μM.

The next data set has as its system ei transporters. The settings on record: Paterson et al, 1991; cited from earlier work.
In data set [2] the test system is human erythrocyte es transporter. To be noted: Young and Jarvis, 1983; Paterson et al; cited from earlier work.
In data set [3] the target is T1, CNT1. As to the kind of experiment: uptake/influx of radiolabelled nucleosides in Xenopus oocytes injected with pQQH1 (rat CNT1) cRNA. The class given is cell-based. To be noted: for mediated influx, rCNT1 (adenosine/deoxyadenosine comparison): separate experiment, inset FIG. 14A. As to the method: (§1) Oocytes were injected with water or RNA transcribed in vitro from the nucleoside transporter cDNA (pQQH1). […] For panels c and d, the permeant concentration was 10 μM and competing nonradioactive nucleosides were present at a concentration of 1 mM.
Oocytes injected with water or in vitro transcribed RNA from pQQH1 were incubated with radiolabeled permanent (10 μM) for 30 min (open columns) or 1 h (hatched columns) at 20° C. Each value represents the mean ±S. E. of 8-10 ooctyes.
(§2) Remaining template was removed by digestion with RQ1 DNase. Oocytes were treated with collagenase to remove follicular layers (Huang et al, 1993) and injected with 10 ng of pQQH1 cRNA or water. […] At the end of the incubation, extracellular label was removed by six rapid ice-cold washes in the appropriate transport buffer. Individual oocytes were dissolved in 5% SDS for quantitation of oocyte-associated ^3 H by liquid scintillation counting (LS 6000 IC, Beckman).

The subject of a further data set is kidney. To be noted: humans, mice (adenosine also rat); cited from earlier work.
Data set [4] has as its target T2, hCNT1a (Homo sapiens, UniProt O00337).
T2 sequence (O00337 with tags, fused parts or gaps E34G/INS140V): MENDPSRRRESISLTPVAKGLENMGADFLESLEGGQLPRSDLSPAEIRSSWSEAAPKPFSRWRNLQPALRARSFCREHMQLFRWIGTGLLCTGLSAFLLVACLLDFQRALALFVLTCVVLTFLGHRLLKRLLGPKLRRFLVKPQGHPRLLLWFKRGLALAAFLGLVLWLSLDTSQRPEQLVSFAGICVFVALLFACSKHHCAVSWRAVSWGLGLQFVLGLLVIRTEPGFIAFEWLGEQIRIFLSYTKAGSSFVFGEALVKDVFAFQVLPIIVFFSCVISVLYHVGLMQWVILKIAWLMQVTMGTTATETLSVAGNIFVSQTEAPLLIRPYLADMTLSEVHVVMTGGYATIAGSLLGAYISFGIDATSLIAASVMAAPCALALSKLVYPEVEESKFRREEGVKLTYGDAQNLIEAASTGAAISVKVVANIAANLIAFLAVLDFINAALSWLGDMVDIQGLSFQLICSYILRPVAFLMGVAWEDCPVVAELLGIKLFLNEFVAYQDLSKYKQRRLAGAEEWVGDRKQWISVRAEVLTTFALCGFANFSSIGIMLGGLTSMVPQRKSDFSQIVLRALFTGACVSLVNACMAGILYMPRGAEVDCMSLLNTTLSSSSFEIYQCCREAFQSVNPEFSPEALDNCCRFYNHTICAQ
The data set is described as follows: cell-based.
Procedure: (§3) H2 O, water-injected oocytes. Fluxes were not corrected for the contribution of endogenous transport activity.
(§4) Defolliculated oocytes (Huang et al. 1993) were injected with either 10 nl of water containing 10 ng RNA transcript or 10 nl of water alone. Nucleoside uptake was measured after 3 d and was traced with the respective [^3 H] or [^14 C]nucleoside (Moravek Biochemicals)(5 μC 3H/ml, 1 μC 14C/ml). […] The transport buffer for adenosine influx experiments contained 1 μM deoxycoformycin to inhibit adenosine deaminase activity. Results are presented as means ±SEM for 10-12 individual oocytes. Kinetic constants were determined by non-linear regression analysis (ENZFITTER, Elsevier-Biosoft). Each experiment was performed at least twice on different batches of oocytes.

The target of data set [5] is T2, hCNT1a. As to the kind of experiment: influx of radiolabelled nucleosides in Xenopus oocytes injected with hCNT1a RNA transcript. The settings on record: for mediated influx, hCNT1a (adenosine/deoxyadenosine comparison): separate experiment, inset FIG. 14A.
Procedure: Oocytes were injected with either water alone or water containing hCNT1a RNA transcript.
Oocytes were injected with either water alone (.tangle-solidup.) or water containing hCNT1a RNA transcript (.smallcircle.,.circle-solid.).
Adenosine, guanosine and AZT (10 μM) fluxes were compared in the same batch of oocytes injected either with water (open columns) or with RNA transcript for hCNT1a or rCNT1 (hatched and solid columns, respectively).
as §4
Data set [6] addresses T2, hCNT1a. As to the kind of experiment: inhibition of hCNT1a-mediated influx of [3H]uridine in Xenopus oocytes.
Procedure: as §3, §4
For data set [7], the target named is T1, CNT1. The settings on record: Yao et al. unpublished; read-out: inhibition constant, recombinant rCNT1; cited from earlier work.
For data set [8], the target named is T1, CNT1. The data set is described as follows: inhibition of CNT1-mediated nucleoside (uridine, AZT, ddC) transport in Xenopus oocytes. The format is cell-based. The settings on record: adenosine, thymidine, cytidine, uridine>>guanosine, inosine. As to the method:
as §1, §2

The target in a further data set is T3, hCNT1b (Homo sapiens, UniProt O00337).
T3 sequence (O00337 2-649 V189I/N409S/D521N): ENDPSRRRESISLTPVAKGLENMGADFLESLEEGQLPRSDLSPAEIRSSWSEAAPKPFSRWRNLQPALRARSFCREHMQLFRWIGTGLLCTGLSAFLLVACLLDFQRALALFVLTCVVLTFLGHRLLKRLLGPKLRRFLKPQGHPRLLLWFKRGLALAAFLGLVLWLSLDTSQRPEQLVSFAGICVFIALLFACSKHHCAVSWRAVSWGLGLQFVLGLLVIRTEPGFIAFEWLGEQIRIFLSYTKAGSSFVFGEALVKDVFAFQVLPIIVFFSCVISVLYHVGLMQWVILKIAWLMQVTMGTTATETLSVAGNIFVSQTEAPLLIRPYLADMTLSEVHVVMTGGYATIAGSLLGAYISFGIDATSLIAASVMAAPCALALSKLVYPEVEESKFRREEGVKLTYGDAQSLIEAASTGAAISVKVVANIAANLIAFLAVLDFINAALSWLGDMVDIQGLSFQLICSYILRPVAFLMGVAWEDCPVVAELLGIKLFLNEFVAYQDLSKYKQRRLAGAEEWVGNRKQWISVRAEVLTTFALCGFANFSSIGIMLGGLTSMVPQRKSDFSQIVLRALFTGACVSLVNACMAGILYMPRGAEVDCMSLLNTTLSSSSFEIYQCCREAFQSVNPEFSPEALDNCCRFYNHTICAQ
The data set is described as follows: inhibition of hCNT1b-mediated influx of [3H]uridine in Xenopus oocytes. To be noted: uridine 10 μM, competitor 1 mM (FIG. 12B). The class given is cell-based. From the text:
H2 O, water-injected oocytes.

For data set [9], the target named is T1, CNT1. The settings on record: Fang et al, 1996, Yao et al. unpublished; cited from earlier work.
Data set [10] relates to isolated perfused rat kidneys. The settings on record: secreted at higher concentrations; Trimble and Coulson, 1984; cited from earlier work.

Here are results for three compounds from patent US6153740A, “cDNA encoding nucleoside transporter” (University of Alberta, priority 1997, dated 2000).

For `O=[N+]([O-])c1ccc(CSc2ncnc3c2ncn3[C@@H]2O[C@H](CO)[C@@H](O)[C@H]2O)cc1` [NBMPR, 6-[(4-nitrobenzyl)thio]-9-p-D-ribofuranosylpurine], on CNT1 [1], the “effect on CNT1 transport” value is “unaffected”. For the same compound, the “sensitivity of ei systems to inhibition” value with ei transporters is reported as “low (micromolar) sensitivity”. The “inhibition of equilibrative nucleoside transport in human erythrocytes, concentrations” value in [2] is listed as “namomolar concentrations”.

Turning to `Nc1ncnc2c1ncn2[C@H]1C[C@H](O)[C@@H](CO)O1` [deoxyadenosine, 2'-deoxyadenosine], the “mediated influx, rCNT1 (adenosine/deoxyadenosine comparison)” value on CNT1 [3] (10 μM) is on record as 0.11±0.02 pmol/oocyte.10 min^-1. Moreover, the net renal handling entry in the data set on kidney is given as “net renal secretion”. The Ki at hCNT1a [4] worked out at 46 ± 14 µM. For the same compound, the “permeant quality, hCNT1” value on hCNT1a [5] is “poor hCNT1 permeants”. Besides, the “mediated influx, hCNT1a (adenosine/deoxyadenosine comparison)” value on hCNT1a [5] (10 μM) is reported as 0.14±0.02 pmol/oocyte.10 min^-1.

Regarding `Nc1ncnc2c1ncn2[C@@H]1O[C@H](CO)[C@@H](O)[C@H]1O` [adenosine], the Ki on hCNT1a [6] came out at 50 ± 11 µM. Also, the “inhibition of uridine fluxes, hCNT1a” value at hCNT1a [6] (uridine 10 μM, competitor 1 mM (FIG. 12A), guanosine also in FIG. 13) was “inhibited”. In addition, at CNT1 [3] (10 μM), the “uridine:adenosine flux ratio, rCNT1” value was found to be 110 and the “mediated influx, rCNT1 (adenosine/deoxyadenosine comparison)” value was determined as 0.70±0.0 pmol/oocyte.10 min^-1. At CNT1 [3] (10 μM permeant (FIG. 14)), the “mediated flux, rCNT1” value was 0.51±0.05 pmol/oocyte.10 min^-1. Moreover, at CNT1 [7], the Ki was 29 µM. Moreover, the net renal handling result with kidney is on record as “net renal reabsorption”. Further, the “selective inhibition of uridine and thymidine fluxes (rCNT1)” value at CNT1 [8] was “selective inhibition”. Also, at hCNT1a [5] (10 μM), the “uridine:adenosine flux ratio, hCNT1a” value was determined as 75 and the “mediated influx, hCNT1a (adenosine/deoxyadenosine comparison)” value is 0.60±0.01 pmol/oocyte.10 min^-1. For the same compound, on hCNT1a [5] (10 μM permeant (FIG. 14)), the “mediated flux, hCNT1a” value was determined as 0.49±0.03 pmol/oocyte.10 min^-1. Further, on hCNT1b, the “inhibition of uridine fluxes, hCNT1b” value was “inhibited”. For the same compound, at CNT1 [9], the “Vmax relative to uridine, recombinant rCNT1” value was “lower Vmax” and the “affinity of transport by recombinant rCNT1” value was “same high affinity as uridine”. In addition, the “plasma concentration at which adenosine is reabsorbed” value in [10] was “less than 50 μM”.
